Assays:
[1] = target: SARS-CoV-2 nsp14 (Severe acute respiratory syndrome coronavirus 2, UniProt P0DTD1); assay: biochemical; conditions: 100 μM
[2] = target: SARS-CoV-2 nsp16/nsp10 (Severe acute respiratory syndrome coronavirus 2, UniProt P0DTD1); assay: biochemical; conditions: 100 μM

Row | SMILES | Percent inhibition at 100 μM, nsp14 [1] | Percent inhibition at 100 μM, nsp16 [2]
1 | O=C(Cc1csc(SCC(=O)c2ccccc2)n1)Nc1ccccc1 [Compound 005-296-365] | 27 ±2% | -17 ±4%
2 | CCOc1ccccc1OCC(=O)N1CCCC(c2nc3ccccc3s2)C1 (centres unmarked) [Compound 005-679-672] | 6 ±0% | -59 ±2%
3 | O=C(CCn1cncn1)N1CCC(c2nc3ccccc3s2)CC1 [Compound 009-436-708] | 2 ±1% | -114 ±6%
4 | O=C(CCn1cncn1)N1CCCC1c1nc2ccccc2s1 (centres unmarked) [Compound 009-447-345] | 2 ±0% | 1 ±1%
5 | Cc1nc(CC(=O)N2CCCC(c3nc4ccccc4s3)C2)cs1 (centres unmarked) [Compound 021-760-906] | 10 ±2% | 28 ±6%
6 | Cn1nccc1CCC(=O)N1CCCC(c2nc3ccccc3s2)C1 (centres unmarked) [Compound 042-575-680] | 8 ±1% | 33 ±9%
7 | O=C(CCCn1cncn1)N1CCCC(c2nc3ccccc3s2)C1 (centres unmarked) [Compound 045-938-897] | 7 ±2% | -29 ±5%
8 | Cc1csc(C2CCCN(C(=O)CCn3cnc4c(N)ncnc43)C2)n1 (centres unmarked) [Compound 046-114-939] | 15 ±4% | 37 ±13%
9 | Cn1cnn(CCC(=O)N2CCCC(c3nc4ccccc4s3)C2)c1=O (centres unmarked) [Compound 046-705-372] | 5 ±3% | 15 ±8%
10 | Cn1cc(CCC(=O)N2CCCC(c3nc4ccccc4s3)C2)cn1 (centres unmarked) [Compound 046-706-934] | 5 ±3% | -113 ±16%
11 | O=C(CCc1cncnc1)N1CCCC(c2nc3ccccc3s2)C1 (centres unmarked) [Compound 046-723-388] | 5 ±3% | -45 ±13%
12 | O=C(O)CCC(=O)Nc1nc2n(n1)C(c1ccccc1)CC(=O)N2 (centres unmarked) [ZINC000000095711] | -16 ±0% | -77 ±13%
13 | Nc1ncnc2c1ncn2CC(O)CO (centres unmarked) [ZINC000000370772] | -9 ±12% | -34 ±9%
14 | O=C(CC1(O)C(=O)N(Cc2ccc3c(c2)OCO3)c2ccccc21)c1ccc(F)cc1 (centres unmarked) [ZINC000000783765] | -10 ±3% | -3 ±4%
15 | CC(=O)Nc1ccn(C2OC(CO)C(O)C2O)c(=O)n1 (centres unmarked) [ZINC000001078602] | -15 ±5% | -9 ±1%
16 | NS(=O)(=O)c1ccc(NC2=NC(=O)C(CC(=O)O)S2)cc1 (centres unmarked) [ZINC000001797008] | 0 ±2% | -35 ±10%
17 | O=C(Nc1ccc(N2CCOCC2)cc1)c1oc2ccccc2c1CSc1nnc[nH]1 [ZINC000003404544] | 3 ±2% | 6 ±8%
18 | CC1=C(C(=O)O)N2C(=O)C(NC(=O)C(N)c3ccc(O)cc3)C2SC1 (centres unmarked) [ZINC000003830391] | -18 ±6% | -8 ±1%
19 | CCOc1c(Cl)cc(C(=O)Nc2cccc(C(=O)O)c2)cc1Cl [ZINC000004649202] | -1 ±3% | 14 ±5%
20 | NC(=O)Cn1cnc2c(cnn2CCO)c1=O [ZINC000004940485] | 2 ±0% | 6 ±6%
21 | NS(=O)(=O)c1ccc(NC(=O)COC(=O)c2n[nH]c3ccccc23)cc1 [ZINC000005360401] | -15 ±7% | 3 ±1%
22 | O=C(Cc1nnc(O)c2ccccc12)NCC(O)c1ccccc1 (centres unmarked) [ZINC000009340377] | 5 ±4% | 2 ±5%
23 | Cc1ccc(NC(=O)Cn2c(=O)n(CC(=O)NCc3ccco3)c(=O)c3ccccc32)cc1C [ZINC000009617688] | 10 ±6% | -8 ±4%
24 | CCN(Cc1ccncc1)C(=O)CC1C(=O)NCCN1CCCc1ccccc1 (centres unmarked) [ZINC000011821342] | 5 ±5% | 17 ±11%
25 | CC(C)Cn1c(CNC(=O)c2ccccc2C(F)(F)F)nnc1SCc1ccncc1 [ZINC000012152850] | 2 ±8% | 19 ±6%
26 | COc1ccc(CCNC(=O)C2C3C=CC4(CN(c5ccc6c(c5)OCO6)C(=O)C24)O3)cc1 (centres unmarked) [ZINC000012895535] | 5 ±2% | -15 ±6%
27 | CC[C@H](C)[C@H](N)C(=O)NS(=O)(=O)OC[C@H]1O[C@@H](n2cnc3c(N)ncnc32)[C@H](O)[C@@H]1O [ZINC000013488353] | 8 ±5% | 34 ±6%
28 | COc1ccc(C2=NN(C(=O)CCc3ccc4c(c3)OCO4)C(O)(C(F)(F)F)C2)cc1 (centres unmarked) [ZINC000016448507] | 9 ±4% | 11 ±5%

Row | SMILES | Percent inhibition at 100 μM, nsp14 [1] | Percent inhibition at 100 μM, nsp16 [2]
29 | COc1ccc(N2C(=O)CC(c3c(C)[nH]n(-c4nc5ccccc5s4)c3=O)C2=O)cc1 (centres unmarked) [ZINC000018085229] | 11 ±6% | 17 ±6%
30 | CC(C)CC(C(=O)OCC(=O)Nc1cccc(Cl)c1)N1C(=O)C2CC=CCC2C1=O (centres unmarked) [ZINC000019078629] | 8 ±3% | 37 ±9%
31 | O=C(CCc1c[nH]c2ccccc12)N1CCCC1c1ccc[nH]1 (centres unmarked) [ZINC000019688789] | 2 ±0% | -10 ±1%
32 | O=C(CP(=O)(O)O)N=c1[nH]c2ccc(Cl)cc2s1 [ZINC000020502712] | 7 ±6% | 17 ±7%
33 | COc1cccc(C2CC(O)=Nc3c2c(C)nn3-c2ncnc3[nH]cnc23)c1 (centres unmarked) [ZINC000020745418] | -8 ±5% | -7 ±2%
34 | O=C(NCc1cccnc1)C1CC(NCc2c(F)cccc2F)CN1Cc1ccccc1 (centres unmarked) [ZINC000020999776] | -2 ±4% | 8 ±5%
35 | Cn1c(=O)c(=O)n(CC(=O)NCCN(CCc2ccccc2)Cc2ccco2)c2ccccc21 [ZINC000021649685] | 10 ±9% | 7 ±4%
36 | Nc1ncnc2c1ncn2[C@@H]1O[C@H](COS(=O)(=O)NC(=O)c2ccccc2O)[C@@H](O)[C@H]1O [ZINC000028567519] | 28 ±2% | 14 ±3%
37 | Cc1nn(C)c2ncc(NC(=O)c3ccccc3-c3ncc(-c4ccc(F)cc4)o3)cc12 [ZINC000032754717] | 14 ±6% | -24 ±9%
38 | C=CCn1c(=O)c(=O)n(CC(=O)NCCN2CCN(c3cc(Cl)ccc3C)CC2)c2ccccc21 [ZINC000033268761] | 9 ±3% | 32 ±7%
39 | CC1(O)Cc2n[nH]c(O)c2C(c2ccccc2)C1 (centres unmarked) [ZINC000035326963] | 4 ±8% | -2 ±6%
40 | O=C(O)c1cc(CN2CC[C@@H](c3ccc4ccccc4c3)[C@H](O)C2)ccc1O [ZINC000065452571] | -3 ±8% | -2 ±5%
41 | Cc1ccc(Oc2ncccc2CNC(=O)c2cnc(O)cc2O)cn1 [ZINC000067754517] | 11 ±3% | 39 ±8%
42 | CC(=O)c1cccc(OCc2cc(C(=O)NCC(N)=O)n[nH]2)c1 [ZINC000067920483] | 2 ±2% | -1 ±3%
43 | CN(C)c1nc2c(c(N(C)C)n1)CCN(C(=O)[C@@H](N)Cc1ccc(O)cc1)C2 [ZINC000071682020] | 12 ±5% | 9 ±8%
44 | CN(C)c1nc2c(c(=O)[nH]1)CCN(C(=O)c1n[nH]cc1Cl)C2 [ZINC000072172639] | -1 ±2% | 29 ±5%
45 | O=C(CC1(C(=O)O)CC(c2ccc(F)cc2)=NO1)Nc1cccc(C(=O)O)c1 (centres unmarked) [ZINC000072406141] | 14 ±7% | 31 ±8%
46 | O=C(c1ccc(Cn2ccnc2)o1)N1CCc2[nH]c3ccc(Cl)cc3c2C1 [ZINC000072429175] | 0 ±4% | 6 ±5%
47 | Nc1nc2c(c(=O)[nH]1)CC(CCc1ccc(C(=O)NC(CCC(=O)O)C(=O)O)cc1)CN2 (centres unmarked) [ZINC000077301924] | 5 ±6% | 15 ±10%
48 | Cn1nc(CC(=O)NCCCc2nnc3ccccn23)c2ccccc2c1=O [ZINC000095478169] | -6 ±2% | -53 ±8%
49 | COc1c(C)c2c(c(O)c1CC=C(C)CCC(=O)Nc1nnc[nH]1)C(=O)OC2 [ZINC000096115284] | 5 ±4% | -68 ±6%
50 | O=C(Nc1ccccc1-c1ccccc1)C1CCCN(c2ccc(-n3cncn3)nn2)C1 (centres unmarked) [ZINC000096124096] | 9 ±7% | 10 ±1%
51 | CC(C)N(CC1OC(n2cnc3c(N)ncnc32)C(O)C1O)C1CC(CCc2nc3cc(C(C)(C)C)ccc3[nH]2)C1 (centres unmarked) [ZINC000100074350] | 30 ±4% | 68 ±7%
52 | Cc1cc(=O)n2c(n1)NC(N1CCOCC1)=NC2c1ccccc1 (centres unmarked) [ZINC000104279901] | -14 ±2% | -33 ±4%
53 | O=C(Cc1ccc2c(c1)CCO2)Nc1ccc2nc[nH]c(=O)c2c1 [ZINC000170622294] | -2 ±2% | -6 ±3%
54 | O=C(CCc1ccc(O)cc1)NC(c1ccc2c(c1)CCO2)C1CC(O)C1 (centres unmarked) [ZINC000220681335] | 0 ±2% | 10 ±5%
55 | O=C(CCc1ccncc1)NC(c1ccccc1)C1CC(O)C1 (centres unmarked) [ZINC000252528037] | 13 ±2% | 36 ±3%

Source: article PMC8705538, “Discovery of SARS-CoV-2 Nsp14 and Nsp16 Methyltransferase Inhibitors by High-Throughput Virtual Screening” (Pharmaceuticals, 2021)
